# Measured values taken from the supplement of paper PMC10307832.
# Key:
# Experiment in all cases: relative viability (nuclei count vs DMSO), 5 days (fraction); higher = more cells survive
# RAF265 + Linsitinib = compound: Cn1c(Nc2ccc(C(F)(F)F)cc2)nc2cc(Oc3ccnc(-c4ncc(C(F)(F)F)[nH]4)c3)ccc21 [RAF265] + C[C@]1(O)C[C@@H](c2nc(-c3ccc4ccc(-c5ccccc5)nc4c3)c3c(N)nccn32)C1 [Linsitinib] (partner 1 µM)
# Method in brief: (§1)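 Each reported value is a median over duplicate plates. It expresses relative viability: treated-well nuclei count divided by vehicle-well nuclei count. Lung cancer cell lines in 1536-well plates were dosed by pin tool a day after seeding, alone with one drug or with a fixed anchor-drug dose plus five library-drug doses (not always all listed) in √10 steps, and nuclei were counted after 5 days.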
# IPA-3 + Crizotinib = compound: C1=CC=C2C(=C1)C=CC(=C2SSC3=C(C=CC4=CC=CC=C43)O)O [IPA-3] + C[C@@H](Oc1cc(-c2cnn(C3CCNCC3)c2)cnc1N)c1c(Cl)ccc(F)c1Cl [Crizotinib] (partner 1 µM)
# Method in brief: as §1
# Doramapimod + Lapatinib = compound: Cc1ccc(-n2nc(C(C)(C)C)cc2NC(=O)Nc2ccc(OCCN3CCOCC3)c3ccccc23)cc1 [Doramapimod] + CS(=O)(=O)CCNCc1ccc(-c2ccc3ncnc(Nc4ccc(OCc5cccc(F)c5)c(Cl)c4)c3c2)o1 [Lapatinib] (partner 2 µM)
# Method in brief: as §1
# RAF265 + Tozasertib = compound: Cn1c(Nc2ccc(C(F)(F)F)cc2)nc2cc(Oc3ccnc(-c4ncc(C(F)(F)F)[nH]4)c3)ccc21 [RAF265] + Cc1cc(Nc2cc(N3CCN(C)CC3)nc(Sc3ccc(NC(=O)C4CC4)cc3)n2)n[nH]1 [Tozasertib] (partner 0.1 µM)
# Method in brief: as §1
Cell Line,relative viability (RAF265 + Linsitinib; first compound 0.01 µM),relative viability (RAF265 + Linsitinib; first compound 0.03162 µM),relative viability (RAF265 + Linsitinib; first compound 0.1 µM),relative viability (RAF265 + Linsitinib; first compound 0.3162 µM),relative viability (RAF265 + Linsitinib; first compound 1 µM),relative viability (IPA-3 + Crizotinib; first compound 0.2 µM),relative viability (IPA-3 + Crizotinib; first compound 0.6325 µM),relative viability (IPA-3 + Crizotinib; first compound 2 µM),relative viability (IPA-3 + Crizotinib; first compound 6.325 µM),relative viability (IPA-3 + Crizotinib; first compound 20 µM),relative viability (Doramapimod + Lapatinib; first compound 0.02 µM),relative viability (Doramapimod + Lapatinib; first compound 0.06325 µM),relative viability (Doramapimod + Lapatinib; first compound 0.2 µM),relative viability (Doramapimod + Lapatinib; first compound 0.6325 µM),relative viability (Doramapimod + Lapatinib; first compound 2 µM),relative viability (RAF265 + Tozasertib; first compound 0.01 µM),relative viability (RAF265 + Tozasertib; first compound 0.03162 µM),relative viability (RAF265 + Tozasertib; first compound 0.1 µM),relative viability (RAF265 + Tozasertib; first compound 0.3162 µM),relative viability (RAF265 + Tozasertib; first compound 1 µM)
LCLC-97TM1,0.169,0.158,0.149,0.136,0.11,0.439,0.355,0.448,0.315,0.343,0.859,0.792,1,1.05,0.853,0.223,0.141,0.156,0.109,0.0904
LK-2,0.615,0.555,0.67,0.671,0.351,0.202,0.229,0.227,0.22,0.193,0.972,0.873,0.904,0.68,0.754,0.164,0.166,0.153,0.178,0.152
LOU-NH91,1.03,0.818,1.03,0.599,0.644,0.723,0.757,0.809,0.728,0.801,0.693,0.673,0.678,0.631,0.628,0.705,0.618,0.78,0.457,0.467
LU99A,0.471,0.423,0.323,0.308,0.273,0.635,0.529,0.615,0.517,0.533,0.959,1,0.981,1.1,0.897,0.318,0.285,0.28,0.291,0.195
LXF-289,0.916,0.919,0.947,0.815,0.792,0.828,0.764,0.811,0.829,0.86,0.851,0.924,0.912,0.871,0.834,0.217,0.172,0.174,0.205,0.108
NCI-H23,0.668,0.541,0.437,0.321,0.202,0.488,0.376,0.599,0.545,0.654,0.962,0.998,1.11,0.761,1.12,0.368,0.373,0.334,0.254,0.172
NCI-H322M,0.929,0.807,0.662,0.377,0.256,1.08,0.933,0.96,0.886,1.1,0.59,0.601,0.644,0.798,0.605,0.479,0.462,0.306,0.327,0.223
NCI-H358,0.843,0.565,0.443,0.37,0.267,0.454,0.663,0.611,0.595,0.574,0.508,0.426,0.472,0.571,0.443,0.11,0.0915,0.0883,0.0935,0.0863
NCI-H460,0.812,0.692,0.647,,0.378,1.07,0.871,0.908,0.726,0.62,0.889,0.962,0.858,0.946,0.934,0.446,0.468,0.628,0.445,0.293
NCI-H520,0.941,0.949,0.939,0.912,0.631,0.962,0.803,0.682,0.74,0.919,0.828,0.865,0.945,0.807,0.629,0.448,0.414,0.384,0.491,0.338
NCI-H596,1.05,0.97,1.1,1.09,0.657,1.08,0.597,1.08,1.1,1.24,1.03,1.15,1.14,1.33,1.07,1.04,0.959,1.06,0.888,0.728
NCI-H647,0.801,0.991,1.01,0.574,0.519,1.22,1.01,0.991,0.596,0.173,0.789,1.09,1.21,1.06,0.826,0.197,0.207,0.269,0.443,0.158
NCI-H650,0.972,0.845,0.666,0.442,0.375,0.824,0.548,0.627,0.802,0.909,1.03,0.938,1.43,0.921,0.844,0.716,0.704,0.738,0.655,0.375
NCI-H661,0.589,0.412,0.686,0.455,0.33,1.06,0.847,1.08,0.988,1.03,0.477,0.438,0.48,0.588,0.413,0.374,0.35,0.314,0.351,0.35
NCI-H727,0.38,0.26,0.254,0.327,0.132,0.937,0.765,0.818,0.699,0.792,0.969,0.731,0.815,0.778,0.933,0.703,0.642,0.641,0.536,0.411
NCI-H838,1.12,1.01,1.02,1.03,0.77,1.02,0.788,0.914,0.839,1.27,0.982,0.996,1.19,1.27,0.843,0.266,0.283,0.288,0.311,0.223
NCI-H1355,0.791,0.67,0.72,0.458,0.298,1.21,0.999,0.778,1.07,1.11,0.972,0.992,0.964,0.95,0.952,0.575,0.515,0.587,0.47,0.19
NCI-H1437,1.09,1.01,1.08,1,0.945,1.19,0.896,1.04,0.895,1.34,0.805,0.905,0.837,0.898,0.723,0.408,0.437,0.427,0.45,0.365
NCI-H1651,0.999,0.976,1.07,0.74,0.737,0.962,0.85,0.909,0.88,0.961,0.878,0.791,0.864,0.99,0.781,0.744,0.718,0.731,0.703,0.426
NCI-H1666,0.894,0.923,0.888,0.854,0.565,1.1,1.04,1.07,1.15,0.799,0.814,0.702,0.654,0.637,0.68,0.635,0.664,0.689,0.618,0.488
NCI-H1734,1.02,0.883,0.717,0.676,0.421,0.745,0.648,0.71,0.703,0.698,1.27,0.963,0.932,1.04,0.928,0.306,0.276,0.255,0.232,0.215
NCI-H1755,0.959,1.06,0.988,0.825,0.579,0.971,0.763,0.964,0.808,0.95,0.6,1.04,1.05,1.08,1.03,0.556,0.634,0.598,0.552,0.402
NCI-H1915,1.1,1.01,1.03,0.653,0.323,1.02,0.905,0.923,0.867,0.949,0.973,1.1,1.01,0.995,0.844,0.437,0.428,0.457,0.278,0.163
NCI-H1944,1.25,1.37,1.08,0.64,0.716,1.21,0.995,1.11,1.17,1.07,0.761,0.823,0.722,0.963,0.585,0.265,0.248,0.265,0.234,0.185
NCI-H1975,0.855,0.712,0.567,0.43,0.361,1.21,0.896,0.968,0.883,0.952,0.937,0.947,0.898,1.23,0.901,0.676,0.621,0.7,0.379,0.126
NCI-H1993,0.68,0.763,0.66,0.713,0.722,0.71,0.811,0.885,0.889,0.998,0.792,0.728,0.774,1.03,0.877,0.606,0.57,0.571,0.593,0.594
